PMC7589326, “Synthesis and Pharmacological Evaluation of Fluorinated Quinoxaline‐Based κ‐Opioid Receptor (KOR) Agonists Designed for PET Studies” (Chemmedchem, 2020)
Read-outs that look alike come from different tables or passages of the source.

What was measured:
MOR [1] = biological target: T1, MOR (Cavia porcellus, UniProt A0ACM8Q262); conditions: cited from earlier work
σ1 receptor [2] = biological target: T2, σ1 receptor (Cavia porcellus, UniProt Q60492); conditions: cited from earlier work
T2 construct: Membrane preparations from guinea pig brain were used in the MOR and σ1 assay; tissue Harlan-Winkelmann, Borchen, Germany; host or cells: guinea pig brain membrane homogenate
T2 sequence (Q60492 whole entry): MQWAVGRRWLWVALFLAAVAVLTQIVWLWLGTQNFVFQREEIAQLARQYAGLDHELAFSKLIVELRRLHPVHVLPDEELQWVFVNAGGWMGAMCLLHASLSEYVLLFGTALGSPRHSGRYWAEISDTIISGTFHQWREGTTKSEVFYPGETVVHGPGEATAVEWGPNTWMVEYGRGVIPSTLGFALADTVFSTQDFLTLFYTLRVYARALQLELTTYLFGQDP

σ2 receptor [3] = biological target: T3, σ2 receptor (Rattus norvegicus, UniProt Q5U3Y7); conditions: cited from earlier work
T3 construct: tissue Harlan-Winkelmann, Borchen, Germany; host or cells: rat liver membrane homogenate
T3 sequence (Q5U3Y7 1-176): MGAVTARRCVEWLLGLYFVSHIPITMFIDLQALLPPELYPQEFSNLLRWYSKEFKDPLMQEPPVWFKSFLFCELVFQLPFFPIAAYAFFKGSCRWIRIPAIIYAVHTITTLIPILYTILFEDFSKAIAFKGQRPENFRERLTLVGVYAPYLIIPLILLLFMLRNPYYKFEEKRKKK

[4] = Distribution coefficient logD7.4, shake flask method with radioligand; format: physicochemical
Procedure: The distribution coefficient at pH 7.4 (logD7.4) was determined by a shake flask method using the radioligand [^18F]‐2. After distribution of [^18F]‐2 between n‐octanol and phosphate buffered saline (pH 7.4) layers, the radioactivity in both layers was determined and set in ratio. According to this procedure, a logD7.4 value of 1.37±0.06 was determined indicating a moderate lipophilic compound, which should be able to penetrate into the central nervous system.
The lipophilicity of radioligands [^18F]‐2 and [^18F]‐14c was assessed by determination of the water n‐octan‐1‐ol distribution coefficient (logD) following a published procedure.57 In brief, approximately 3.2 MBq of radioligand [^18F]‐2 and approximately 0.3 MBq of radiotracer [^18F]‐14c, respectively, were mixed with equal amounts (0.6 mL) of phosphate buffered saline (PBS, pH 7.4) and n‐octan‐1‐ol. The resulting biphasic system was mixed vigorously for 3 min at room temperature and subsequently, the tubes were centrifuged (≥5 min). Then 400 μL of the n‐octan‐1‐ol layer was separated and 400 μL of PBS were added. The mixture was mixed vigorously for 10 min at room temperature followed by centrifugation of the tubes for≥5 min. Two samples of 100 μL of each layer were counted in a γ‐counter (2480 Automatic Gamma Counter Wizard^2, Perkin‐Elmer). The distribution coefficient was determined by calculating the ratio cpm(n‐octan‐1‐ol)/cpm(PBS) and expressed as logD 7.4 (log(cpmn‐octanol/cpmPBS)). Three independent experiments were performed in duplicate and data were provided as mean values ±standard deviation.

[5] = Stability in mouse serum (radio-HPLC); format: in vitro ADME; conditions: 90 min, 37 °C
Procedure: (§1) Enzymes present in blood serum could be able to transform the radioactive PET tracer [^18F]‐2. Therefore, the blood serum stability of [^18F]‐2 was investigated before testing the tracer in vivo. [^18F]‐2 was incubated with mouse and human serum for 90 min at 37 °C.
(§2) The serum stability of radioligands [^18F]‐2 and [^18F]‐14c was evaluated by incubation in mouse or human serum at 37 °C for up to 90 min. An aliquot of formulated [^18F]‐2 or [^18F]‐14c (20 μL, ca. 6.6 MBq and ca.10 MBq, respectively) was added to a sample of mouse serum (200 μL) or human serum (200 μL), and the mixtures were incubated at 37 °C. Samples of 20 μL each were taken after periods of 10, 30, 60 and 90 min and ice‐cold DNA‐grade CH3CN (100 μL) were added. After centrifugation for ≥5 min, the supernatant was analyzed by analytical radio‐HPLC B, method B.

[6] = Stability in human serum (radio-HPLC); format: in vitro ADME; conditions: 90 min, 37 °C
Procedure: as §1, §2

[7] = In vivo biodistribution, small animal PET in C57BL/6 mice; set-up: species or system mouse
Procedure: Next, the distribution of the PET tracer [^18F]‐2 in mice was investigated. For this purpose, [^18F]‐2 was injected into 15‐week‐old C57BL/6 mice. […] Already after 2 min the radioactivity was almost completely found in liver, kidneys and bladder. In the liver, the radioactivity remained almost constant over the period of 90 min (Figure 6). Besides a transient local increase in radioactivity in the submandibular and harderian glands, no significant accumulation of [^18F]‐2 in non‐excreting organs such as heart, lung and muscles as indicator for unspecific binding could be detected.
Adult C57BL/6 mice (n=2 male, 15 weeks, 28 g for [^18F]‐2; n=2, male, 10 weeks, 25 g for [^18F]‐14c) were anesthetized by isoflurane/O2 and one lateral tail vein was cannulated BY using a 27 G needle connected to 15 cm polyethylene catheter tubing. Radiotracers (∼500 kBq/g bodyweight, 15 MBq) were injected as a bolus (50 μL compound flushed with 100 μL saline) via the tail vein and subsequent PET scanning was performed.
Small Animal PET Scanning. PET experiments were carried out using a submillimeter high resolution (0.7 mm full width at half‐maximum) small animal scanner (32 module quadHIDAC, Oxford Positron Systems Ltd., Oxford, UK) with uniform spatial resolution (<1 mm) over a large cylindrical field (165 mm diameter, 280 mm axial length). List‐mode data were acquired for 90 min and reconstructed into dynamic time frames using an iterative reconstruction algorithm. Subsequently, the scanning bed was transferred to the computed tomography (CT) scanner (Inveon, Siemens Medical Solutions, U.S.), and a CT acquisition with a spatial resolution of 80 μm was performed for each mouse. Reconstructed image data sets were coregistered based on extrinsic markers attached to the multimodal scanning bed and the in‐house developed image analysis software MEDgical. Three‐dimensional volumes of interest (VOIs) were defined over the respective organs in CT data sets, transferred to the coregistered PET data, and analyzed quantitatively. Regional uptake was calculated as percentage of injected dose by dividing counts per milliliter in the VOI by total counts in the mouse multiplied by 100 (%ID/mL).

KOR [8] = biological target: T4, KOR (Cavia porcellus, UniProt P41144); assay: biochemical; format: binding, guinea pig
T4 construct: The thawed guinea pig brain membrane preparation (about 100 μg of the protein) was incubated; tissue Harlan-Winkelmann, Borchen, Germany; host or cells: guinea pig brain membrane homogenate
T4 sequence (P41144 whole entry): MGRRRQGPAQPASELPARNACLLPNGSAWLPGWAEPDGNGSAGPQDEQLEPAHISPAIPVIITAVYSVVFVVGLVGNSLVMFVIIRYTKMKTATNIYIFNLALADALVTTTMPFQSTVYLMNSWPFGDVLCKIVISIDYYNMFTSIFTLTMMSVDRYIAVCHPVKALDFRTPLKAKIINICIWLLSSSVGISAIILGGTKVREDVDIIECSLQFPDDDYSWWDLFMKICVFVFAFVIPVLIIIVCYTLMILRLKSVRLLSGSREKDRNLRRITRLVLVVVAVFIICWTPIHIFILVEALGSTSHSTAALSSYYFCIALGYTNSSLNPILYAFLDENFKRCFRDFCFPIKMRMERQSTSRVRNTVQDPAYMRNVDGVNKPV

MOR [9] = biological target: T1, MOR; assay: biochemical; format: binding, guinea pig; conditions: for inhibition at 1 µM: read-out: % inhibition at 1 μM MOR [3H]DAMGO
DOR = biological target: T5, DOR (Rattus norvegicus, UniProt P33533); assay: biochemical; format: binding; conditions: for inhibition at 1 µM: read-out: % inhibition at 1 μM DOR [3H]DPDPE
T5 construct: preparations from rat brain were employed in the DOR assay; tissue Harlan-Winkelmann, Borchen, Germany; host or cells: rat brain (Sprague Dawley) membrane homogenate
T5 sequence (P33533 whole entry): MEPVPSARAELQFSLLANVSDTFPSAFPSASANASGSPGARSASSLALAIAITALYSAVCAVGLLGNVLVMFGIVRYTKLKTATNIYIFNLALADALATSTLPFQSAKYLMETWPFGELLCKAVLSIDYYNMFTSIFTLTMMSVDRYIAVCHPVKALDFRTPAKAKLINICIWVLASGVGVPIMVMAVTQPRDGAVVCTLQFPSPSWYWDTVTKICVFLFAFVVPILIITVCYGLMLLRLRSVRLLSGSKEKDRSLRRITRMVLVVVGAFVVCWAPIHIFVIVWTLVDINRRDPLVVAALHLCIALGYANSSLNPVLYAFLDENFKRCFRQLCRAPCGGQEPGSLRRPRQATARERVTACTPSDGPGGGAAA

σ1 receptor [10] = biological target: T2, σ1 receptor; assay: biochemical; format: binding, guinea pig; conditions: read-out: % inhibition at 1 μM σ1 (+)-[3H]pentazocine
σ2 receptor [11] = biological target: T3, σ2 receptor; assay: biochemical; format: binding; conditions: for inhibition at 1 µM: read-out: % inhibition at 1 μM σ2 [3H]DTG
mouse DCs (wild-type) = format: cell-based
[12] = tested on: DCs from KOR-deficient mice; format: cell-based, mouse
human DCs = format: cell-based
[13] = tested on: mouse T cells (wild-type); format: cell-based
KOR [14] = biological target: T6, KOR (Homo sapiens, UniProt P41145); assay: cell-based; set-up: expressed in transfected cells; host or cells: HEK 293T (ATCC CRL-11268)
Target sequence in this assay (P41145 whole entry, the tested form may be a part): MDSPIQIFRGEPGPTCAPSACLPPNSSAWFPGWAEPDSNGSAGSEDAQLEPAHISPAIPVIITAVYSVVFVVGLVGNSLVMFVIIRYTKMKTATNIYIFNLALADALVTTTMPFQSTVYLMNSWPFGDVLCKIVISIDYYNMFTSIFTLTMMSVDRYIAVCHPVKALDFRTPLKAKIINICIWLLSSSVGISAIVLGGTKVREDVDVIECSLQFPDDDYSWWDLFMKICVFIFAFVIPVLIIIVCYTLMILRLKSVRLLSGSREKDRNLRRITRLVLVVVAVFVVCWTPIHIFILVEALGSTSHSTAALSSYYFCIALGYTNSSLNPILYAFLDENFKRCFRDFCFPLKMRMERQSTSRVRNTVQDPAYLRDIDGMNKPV

KOR [15] = biological target: T6, KOR; assay: cell-based; set-up: expressed in transfected cells; host or cells: HTLA cells (stably expressing TEV-fused β-arrestin2)
Target sequence in this assay (P41145 whole entry, the tested form may be a part): as above
Target sequence in this assay (P32121 whole entry partner, the tested form may be a part): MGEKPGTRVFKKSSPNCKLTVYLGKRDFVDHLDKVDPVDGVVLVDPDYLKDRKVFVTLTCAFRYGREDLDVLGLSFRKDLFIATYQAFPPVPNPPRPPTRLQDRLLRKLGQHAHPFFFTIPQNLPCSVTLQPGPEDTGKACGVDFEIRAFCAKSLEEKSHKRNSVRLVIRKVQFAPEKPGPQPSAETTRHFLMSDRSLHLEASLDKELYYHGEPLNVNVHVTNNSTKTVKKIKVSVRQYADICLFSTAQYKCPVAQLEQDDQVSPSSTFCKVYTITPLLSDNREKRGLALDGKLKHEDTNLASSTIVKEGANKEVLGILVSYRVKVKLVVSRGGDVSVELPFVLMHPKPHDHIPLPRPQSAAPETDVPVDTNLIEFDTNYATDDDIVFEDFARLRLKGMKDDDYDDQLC

[16] = tested on: T cells from KOR-deficient mice; format: cell-based, mouse
human T cells = format: cell-based

T1 sequence (A0ACM8Q262 1-400): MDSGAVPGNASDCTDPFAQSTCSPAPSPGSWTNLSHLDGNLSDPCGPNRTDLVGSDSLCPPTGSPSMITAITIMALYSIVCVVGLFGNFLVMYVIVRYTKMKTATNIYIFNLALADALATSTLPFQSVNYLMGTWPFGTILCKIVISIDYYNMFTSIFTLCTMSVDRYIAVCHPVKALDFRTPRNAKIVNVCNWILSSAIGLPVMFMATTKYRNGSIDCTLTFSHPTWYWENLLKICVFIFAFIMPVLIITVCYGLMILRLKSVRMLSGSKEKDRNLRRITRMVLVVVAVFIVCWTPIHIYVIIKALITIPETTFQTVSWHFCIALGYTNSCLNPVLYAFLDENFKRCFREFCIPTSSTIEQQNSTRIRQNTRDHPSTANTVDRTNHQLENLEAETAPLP

In the case of COC(=O)N1CCN(C(=O)Cc2ccc(Cl)c(Cl)c2)[C@@H]2[C@@H](N3CCCC3)CCC[C@@H]21 [1c], the “% inhibition at 1 μM MOR [3H]DAMGO” value (MOR [1]) is given as 0%, the “% inhibition at 1 μM σ1 (+)-[3H]pentazocine” value (σ1 receptor [2]) is given as 0% and the “% inhibition at 1 μM σ2 [3H]DTG” value (σ2 receptor [3]) is given as 8%.

For COC(=O)N1CCN(C(=O)Cc2ccc(Cl)c(Cl)c2)[C@@H]2[C@@H](N3CC[C@@H]([18F])C3)CCC[C@@H]21 [[^18F]‐14c, Methyl (4aR,5S,8aS)‐ and (4aS,5R,8aR)‐4‐[2‐(3,4‐dichlorophenyl)acetyl]‐5‐[(R)‐3‐[^18F]fluoropyrrolidin‐1‐yl]‐3,4,4 a,5,6,7,8,8 a‐octahydroquinoxaline‐1(2H)‐carboxylate], the “concentration in the n-octanol layer relative to [18F]-2” value ([4]; n-octanol / PBS pH 7.4) was 15 fold, the logD ([4]; n-octanol / phosphate buffered saline pH 7.4) was 2.54 ± 0.22 and the “stability in mouse serum” value [5] was “high stability”. For the same molecule, the “stability in human serum” value [6] was “high stability”, the “residual radioactivity in organs ex vivo (γ-counter)” value ([7]; 90 min after injection) was “mainly present in the excretion organs and in the urine” and the “radioactivity in the bones / defluorination” value ([7]; C57BL/6 mice, intravenous injection) was “fast defluorination”. The “clearance from the body” value ([7]; C57BL/6 mice, intravenous injection, hepatic and renal pathways) was “fast”.

For CC(C)(C)OC(=O)N1CCN(C(=O)Cc2ccc(Cl)c(Cl)c2)[C@@H]2[C@@H](N3CC[C@H](O)C3)CCC[C@@H]21 (mixture of isomers) [12a, tert‐Butyl (4aR,5S,8aS)‐ and (4aS,5R,8aR)‐4‐[2‐(3,4‐dichlorophenyl)acetyl]‐5‐[(S)‐3‐hydroxypyrrolidin‐1‐yl]‐3,4,4 a,5,6,7,8,8 a‐octahydroquinoxaline‐1(2H)‐carboxylate], the Ki (KOR [8]; Ki±SEM KOR [3H]U-69,593) was 16 ± 2 nM, the inhibition at 1 µM (MOR [9]) was 9% and the inhibition at 1 µM (DOR) was 5%. For the same molecule, the inhibition at 1 µM (σ1 receptor [10]) was 0% and the inhibition at 1 µM (σ2 receptor [11]) was 0%.

In the case of COC(=O)N1CCN(C(=O)Cc2ccc(Cl)c(Cl)c2)[C@@H]2[C@@H](N3CC[C@H](O)C3)CCC[C@@H]21 (mixture of isomers) [12c, Methyl (4aR,5S,8aS)‐ and (4aS,5R,8aR)‐4‐[2‐(3,4‐dichlorophenyl)acetyl]‐5‐[(S)‐3‐hydroxypyrrolidin‐1‐yl]‐3,4,4 a,5,6,7,8,8 a‐octahydroquinoxaline‐1(2H)‐carboxylate], the Ki (KOR [8]; Ki±SEM KOR [3H]U-69,593) is reported as 9.2 ± 6 nM, the inhibition at 1 µM (MOR [9]) is reported as 5% and the Ki (DOR) is reported as 693 nM. For the same molecule, the inhibition at 1 µM (σ1 receptor [10]) was 0%, the inhibition at 1 µM (σ2 receptor [11]) was 5% and the “expression of maturation marker CD11c and IFN-γ production” value (mouse DCs (wild-type)) was “significantly reduced”. For the same molecule, the “anti-inflammatory effect (CD11c, IFN-γ) in DCs from KOR-deficient mice” value [12] was “completely abrogated”, the “expression of CD11c and production of IFN-γ in human DCs” value (human DCs) was “reduced” and the “expression of surface activation markers CD25, CD44 and CD69 and IFN-γ production” value [13] was “did not modulate the activation status”. The EC50 (KOR [14]) was 0.19 nM, the Emax (KOR [14]; HEK-293T, read-out: cAMP E max) was 100% and the EC50 (KOR [15]) was 8.8 nM. For the same molecule, the Emax (KOR [15]; HTLA, read-out: β-Arrestin-2 E max) was 82%.

For COC(=O)N1CCN(C(=O)Cc2ccc(Cl)c(Cl)c2)[C@@H]2[C@@H](N3CC[C@@H](F)C3)CCC[C@@H]21 (mixture of isomers) [14c, Methyl (4aR,5S,8aS)‐ and (4aS,5R,8aR)‐4‐[2‐(3,4‐dichlorophenyl)acetyl]‐5‐[(R)‐3‐fluoropyrrolidin‐1‐yl]‐3,4,4 a,5,6,7,8,8 a‐ octahydroquinoxaline‐1(2H)‐carboxylate], the Ki (KOR [8]) was 0.82 ± 0.69 nM, the “selectivity over the related MOR, DOR and σ receptors” value (KOR [8]) was “more than 1000 fold” and the inhibition at 1 µM (MOR [9]) was 0%. It also gave an inhibition at 1 µM (DOR) of 12%, an inhibition at 1 µM (σ1 receptor [10]) of 8% and a Ki (σ2 receptor [11]) of 962 nM. For the same molecule, the “expression of maturation marker CD11c and IFN-γ production” value (mouse DCs (wild-type)) was “significantly reduced”, the “anti-inflammatory effect (CD11c, IFN-γ) in DCs from KOR-deficient mice” value [12] was “completely abrogated” and the “expression of CD11c and production of IFN-γ in human DCs” value (human DCs) was “reduced”. The “anti-inflammatory cytokine IL-10 in cell cultures” value [13] was “significant upregulation”, the “expression of surface activation markers CD25, CD44 and CD69 and IFN-γ production” value [13] was “significantly reducing” and the “expression of activation markers or cytokine release in T cells from KOR-deficient mice” value [16] was “did not result in an altered expression”. For the same molecule, the IL-10 induction (human T cells) was “only slightly but not significantly induced” and the “expression of surface activation markers CD25 and CD69 and IFN-γ secretion” value (human T cells) was “significantly reduce”.

In the case of CC(C)(C)OC(=O)N1CCN(C(=O)Cc2ccc(Cl)c(Cl)c2)[C@@H]2[C@@H](N3CCCC3)CCC[C@@H]21 [1a], the Ki (MOR [1]; read-out: Ki MOR [3H]DAMGO) is listed as 260 nM, the “% inhibition at 1 μM σ1 (+)-[3H]pentazocine” value (σ1 receptor [2]) is listed as 12% and the “% inhibition at 1 μM σ2 [3H]DTG” value (σ2 receptor [3]) is listed as 16%.

DAMGO [reference compound] gave a Kd (MOR [9]; read-out: Kd-value of radioligand, MOR assay) of 0.57 nM.
